Laboratory results as given in ChEMBL document CHEMBL5724806, “Unraveling interindividual differences and functional consequences of gut microbial metabolism of immunosuppressants” (2024).

Experiments:
Assay type in all cases: ADME
[1] = The drug is tested on Bacteroides thetaiotaomicron strain: DSM2079 for biotransformation under anaerobic condition. The drug concentrations were measured over 6 timepoints collected between 0 and 12 hours of incubation by liquid-chromatography-coupled mass spectrometry (LC–MS); parameters: dose 5 uM, timepoint 0, 1.5, 3, 6, 9, 12 hours; conditions: 5 µM
[2] = The drug is tested on Bacteroides stercoris strain: HM 1036 for biotransformation under anaerobic condition. The drug concentrations were measured over 6 timepoints collected between 0 and 12 hours of incubation by liquid-chromatography-coupled mass spectrometry (LC–MS); parameters: dose 5 uM, timepoint 0, 1.5, 3, 6, 9, 12 hours; conditions: 5 µM
[3] = (§1) The drug is tested on the gut metagenome community of A-02 with ENA study accession number: PRJEB31790 for biotransformation under microaerobic condition. The drug concentrations were measured over 7 timepoints collected between 0 and 12 hours of incubation by liquid-chromatography-coupled mass spectrometry (LC–MS); parameters: dose 5 uM, timepoint 0, 0.75, 1.5, 3, 6, 9, 12 hours; conditions: 5 µM
[4] = The drug is tested on Actinomyces naeslundi strain: DSM43013 for biotransformation under anaerobic condition. The drug concentrations were measured over 6 timepoints collected between 0 and 12 hours of incubation by liquid-chromatography-coupled mass spectrometry (LC–MS); parameters: dose 5 uM, timepoint 0, 1.5, 3, 6, 9, 12 hours; conditions: actinomyces naeslundii, 5 µM
[5] = The drug is tested on Streptococcus mitis strain: DSM12643 for biotransformation under anaerobic condition. The drug concentrations were measured over 6 timepoints collected between 0 and 12 hours of incubation by liquid-chromatography-coupled mass spectrometry (LC–MS); parameters: dose 5 uM, timepoint 0, 1.5, 3, 6, 9, 12 hours; conditions: 5 µM
[6] = The drug is tested on Odoribacter splanchnicus strain: DSM20712 for biotransformation under anaerobic condition. The drug concentrations were measured over 6 timepoints collected between 0 and 12 hours of incubation by liquid-chromatography-coupled mass spectrometry (LC–MS); parameters: dose 5 uM, timepoint 0, 1.5, 3, 6, 9, 12 hours; conditions: 5 µM
[7] = as §1, with “A-03” for “A-02”, “anaerobic” for “microaerobic”; parameters: dose 5 uM, timepoint 0, 0.75, 1.5, 3, 6, 9, 12 hours; conditions: 5 µM
[8] = as §1, with “T-04” for “A-02”; parameters: dose 5 uM, timepoint 0, 0.75, 1.5, 3, 6, 9, 12 hours; conditions: 5 µM
[9] = as §1, with “A-08” for “A-02”, “anaerobic” for “microaerobic”; parameters: dose 5 uM, timepoint 0, 0.75, 1.5, 3, 6, 9, 12 hours; conditions: 5 µM
[10] = as §1, with “A-04” for “A-02”, “anaerobic” for “microaerobic”; parameters: dose 5 uM, timepoint 0, 0.75, 1.5, 3, 6, 9, 12 hours; conditions: 5 µM
[11] = The drug is tested on Bifidobacterium longum strain: DSM20088 for biotransformation under microaerobic condition. The drug concentrations were measured over 6 timepoints collected between 0 and 12 hours of incubation by liquid-chromatography-coupled mass spectrometry (LC–MS); parameters: dose 5 uM, timepoint 0, 1.5, 3, 6, 9, 12 hours; conditions: 5 µM
[12] = The drug is tested on Escherichia coli strain: DSM27469 for biotransformation under anaerobic condition. The drug concentrations were measured over 6 timepoints collected between 0 and 12 hours of incubation by liquid-chromatography-coupled mass spectrometry (LC–MS); parameters: dose 5 uM, timepoint 0, 1.5, 3, 6, 9, 12 hours; conditions: 5 µM
[13] = as §1, with “T-01” for “A-02”; parameters: dose 5 uM, timepoint 0, 0.75, 1.5, 3, 6, 9, 12 hours; conditions: 5 µM
[14] = The drug is tested on Enterococcus faecalis strain: ATCC29212 for biotransformation under microaerobic condition. The drug concentrations were measured over 6 timepoints collected between 0 and 12 hours of incubation by liquid-chromatography-coupled mass spectrometry (LC–MS); parameters: dose 5 uM, timepoint 0, 1.5, 3, 6, 9, 12 hours; conditions: 5 µM
[15] = The drug is tested on Clostridium bolteae strain: DSM15670 for biotransformation under anaerobic condition. The drug concentrations were measured over 6 timepoints collected between 0 and 12 hours of incubation by liquid-chromatography-coupled mass spectrometry (LC–MS); parameters: dose 5 uM, timepoint 0, 1.5, 3, 6, 9, 12 hours; conditions: enterocloster bolteae, 5 µM
[16] = The drug is tested on Bifidobacterium longum strain: DSM20088 for biotransformation under anaerobic condition. The drug concentrations were measured over 6 timepoints collected between 0 and 12 hours of incubation by liquid-chromatography-coupled mass spectrometry (LC–MS); parameters: dose 5 uM, timepoint 0, 1.5, 3, 6, 9, 12 hours; conditions: 5 µM
[17] = The drug is tested on Alloscardovia omnicolens strain: DSM21503 for biotransformation under microaerobic condition. The drug concentrations were measured over 6 timepoints collected between 0 and 12 hours of incubation by liquid-chromatography-coupled mass spectrometry (LC–MS); parameters: dose 5 uM, timepoint 0, 1.5, 3, 6, 9, 12 hours; conditions: 5 µM
[18] = as §1, with “P-02” for “A-02”; parameters: dose 5 uM, timepoint 0, 0.75, 1.5, 3, 6, 9, 12 hours; conditions: 5 µM
[19] = The drug is tested on Roseburia intestinalis strain: DSM14610 for biotransformation under anaerobic condition. The drug concentrations were measured over 6 timepoints collected between 0 and 12 hours of incubation by liquid-chromatography-coupled mass spectrometry (LC–MS); parameters: dose 5 uM, timepoint 0, 1.5, 3, 6, 9, 12 hours; conditions: 5 µM
[20] = as §1, with “P-03” for “A-02”, “anaerobic” for “microaerobic”; parameters: dose 5 uM, timepoint 0, 0.75, 1.5, 3, 6, 9, 12 hours; conditions: 5 µM
[21] = The drug is tested on Ruminococcus gnavus strain: ATCC29149 for biotransformation under anaerobic condition. The drug concentrations were measured over 6 timepoints collected between 0 and 12 hours of incubation by liquid-chromatography-coupled mass spectrometry (LC–MS); parameters: dose 5 uM, timepoint 0, 1.5, 3, 6, 9, 12 hours; conditions: mediterraneibacter gnavus, 5 µM
[22] = The drug is tested on Bacteroides ovatus strain: ATCC 8483 for biotransformation under anaerobic condition. The drug concentrations were measured over 6 timepoints collected between 0 and 12 hours of incubation by liquid-chromatography-coupled mass spectrometry (LC–MS); parameters: dose 5 uM, timepoint 0, 1.5, 3, 6, 9, 12 hours; conditions: 5 µM
[23] = as §1, with “A-04” for “A-02”; parameters: dose 5 uM, timepoint 0, 0.75, 1.5, 3, 6, 9, 12 hours; conditions: 5 µM
[24] = The drug is tested on Bacteroides vulgatus strain: DSM1447 for biotransformation under anaerobic condition. The drug concentrations were measured over 6 timepoints collected between 0 and 12 hours of incubation by liquid-chromatography-coupled mass spectrometry (LC–MS); parameters: dose 5 uM, timepoint 0, 1.5, 3, 6, 9, 12 hours; conditions: phocaeicola vulgatus, 5 µM
[25] = The drug is tested on Collinsella aerofaciens strain: DSM3979 for biotransformation under anaerobic condition. The drug concentrations were measured over 6 timepoints collected between 0 and 12 hours of incubation by liquid-chromatography-coupled mass spectrometry (LC–MS); parameters: dose 5 uM, timepoint 0, 1.5, 3, 6, 9, 12 hours; conditions: 5 µM
[26] = as §1, with “T-03” for “A-02”; parameters: dose 5 uM, timepoint 0, 0.75, 1.5, 3, 6, 9, 12 hours; conditions: 5 µM
[27] = as §1, with “A-07” for “A-02”; parameters: dose 5 uM, timepoint 0, 0.75, 1.5, 3, 6, 9, 12 hours; conditions: 5 µM
[28] = The drug is tested on Coprococcus comes strain: ATCC27758 for biotransformation under anaerobic condition. The drug concentrations were measured over 6 timepoints collected between 0 and 12 hours of incubation by liquid-chromatography-coupled mass spectrometry (LC–MS); parameters: dose 5 uM, timepoint 0, 1.5, 3, 6, 9, 12 hours; conditions: 5 µM
[29] = as §1, with “T-01” for “A-02”, “anaerobic” for “microaerobic”; parameters: dose 5 uM, timepoint 0, 0.75, 1.5, 3, 6, 9, 12 hours; conditions: 5 µM
[30] = The drug is tested on Gemella morbillorum strain: DSM20572 for biotransformation under microaerobic condition. The drug concentrations were measured over 6 timepoints collected between 0 and 12 hours of incubation by liquid-chromatography-coupled mass spectrometry (LC–MS); parameters: dose 5 uM, timepoint 0, 1.5, 3, 6, 9, 12 hours; conditions: 5 µM

Bacterial Biotransformation [1] | Bacterial Biotransformation [2] | Bacterial Biotransformation [3] | Bacterial Biotransformation [4] | Bacterial Biotransformation [5] | Bacterial Biotransformation [6] | Bacterial Biotransformation [7] | Bacterial Biotransformation [8] | Bacterial Biotransformation [9] | Bacterial Biotransformation [10] | Bacterial Biotransformation [11] | Bacterial Biotransformation [12] | Bacterial Biotransformation [13] | Bacterial Biotransformation [14] | Bacterial Biotransformation [15] | Bacterial Biotransformation [16] | Bacterial Biotransformation [17] | Bacterial Biotransformation [18] | Bacterial Biotransformation [19] | Bacterial Biotransformation [20] | also measured | Structure (SMILES)
Compound metabolized | Compound NOT metabolized | Compound metabolized | Compound NOT metabolized | Compound NOT metabolized | Compound NOT metabolized | Compound metabolized | Compound NOT metabolized | Compound metabolized | Compound metabolized | Compound NOT metabolized | Compound NOT metabolized | Compound metabolized | Compound NOT metabolized | Compound NOT metabolized | Compound NOT metabolized | Compound NOT metabolized | Compound metabolized | Compound NOT metabolized | Compound metabolized | Bacterial Biotransformation [21]: Compound NOT metabolized; Bacterial Biotransformation [22]: Compound metabolized; Bacterial Biotransformation [23]: Compound metabolized; Bacterial Biotransformation [24]: Compound NOT metabolized; Bacterial Biotransformation [25]: Compound NOT metabolized; Bacterial Biotransformation [26]: Compound NOT metabolized; Bacterial Biotransformation [27]: Compound metabolized; Bacterial Biotransformation [28]: Compound NOT metabolized; Bacterial Biotransformation [29]: Compound NOT metabolized; Bacterial Biotransformation [30]: Compound metabolized | COc1ccc([C@@H]2Sc3ccccc3N(CCN(C)C)C(=O)[C@@H]2OC(C)=O)cc1 [DILTIAZEM]
Compound NOT metabolized | Compound metabolized | Compound metabolized | Compound metabolized | Compound metabolized | Compound NOT metabolized | Compound metabolized | Compound metabolized | Compound metabolized | Compound metabolized | Compound NOT metabolized | Compound NOT metabolized | Compound metabolized | Compound metabolized | Compound NOT metabolized | Compound metabolized | Compound NOT metabolized | Compound metabolized | Compound NOT metabolized | Compound metabolized | Bacterial Biotransformation [21]: Compound NOT metabolized; Bacterial Biotransformation [22]: Compound metabolized; Bacterial Biotransformation [23]: Compound metabolized; Bacterial Biotransformation [24]: Compound NOT metabolized; Bacterial Biotransformation [25]: Compound metabolized; Bacterial Biotransformation [26]: Compound metabolized; Bacterial Biotransformation [27]: Compound metabolized; Bacterial Biotransformation [28]: Compound NOT metabolized; Bacterial Biotransformation [29]: Compound metabolized; Bacterial Biotransformation [30]: Compound NOT metabolized | COc1c(C)c2c(c(O)c1C/C=C(\C)CCC(=O)OCCN1CCOCC1)C(=O)OC2 [MYCOPHENOLATE MOFETIL]
Compound NOT metabolized | Compound NOT metabolized | Compound NOT metabolized | Compound NOT metabolized | Compound NOT metabolized | Compound NOT metabolized | Compound NOT metabolized | Compound NOT metabolized | Compound NOT metabolized | Compound NOT metabolized | Compound NOT metabolized | Compound NOT metabolized | Compound NOT metabolized | Compound NOT metabolized | Compound NOT metabolized | Compound NOT metabolized | Compound NOT metabolized | Compound NOT metabolized | Compound NOT metabolized | Compound NOT metabolized | Bacterial Biotransformation [21]: Compound NOT metabolized; Bacterial Biotransformation [22]: Compound NOT metabolized; Bacterial Biotransformation [23]: Compound NOT metabolized; Bacterial Biotransformation [24]: Compound NOT metabolized; Bacterial Biotransformation [25]: Compound NOT metabolized; Bacterial Biotransformation [26]: Compound NOT metabolized; Bacterial Biotransformation [27]: Compound NOT metabolized; Bacterial Biotransformation [28]: Compound NOT metabolized; Bacterial Biotransformation [29]: Compound NOT metabolized; Bacterial Biotransformation [30]: Compound NOT metabolized | CC(C)NCC(O)COc1ccc(CC(N)=O)cc1 (stereo not given) [ATENOLOL]
